Source: patent publication US6372940B1, “Process for the preparation of non-hygroscopic salts of L(−)-carnitine” (Sigma-Tau Industrie Farmaceutiche Riunite S.p.A, priority 1999, dated 2002)

Key:
[1] = Tapped density of the granulate (U.S. Pharmacopoeia method); format: physicochemical; conditions: for tapped density of the granulate: product of the humid melting process of the invention, USP 23 NF 18 method
Text: It is in fact known that an inadequately low density (for example, for L(−)-carnitine acid fumarate, a tapped density value below 0.7 g/mL) provides a too light and flaky product which involves serious processability problems. The bulk density is not a reliable parameter for granulated or powdery products, in that even imperceptible perturbations of the test sample can give rise to remarkably different bulk density values. For the characterization of the density of said materials the tapped density is preferably used, which is the limit density obtained after tapping down the material by subjecting a graduated cylinder containing the granulate or powder to strokes, namely by hoisting the cylinder to a fixed height then dropping it for a fixed number of times. The tapped density is usually determined according to the method described in U.S. Pharmacopoeia, National Formulary, Supplement, USP 23, NF 18, Nov. 15, 1997, pages 3976-3977. Said method is herein incorporated by reference. The material is passed through a 1 mm (n. 18 mesh) sieve to crush any agglomerates formed during storage. About 100 g (M) of the test material are placed without tapping down in a 250 mL graduated cylinder. Using a suitable device, the cylinder is hoisted then dropped under the action of its own weight, from a height of 14+2 mm, with a 300 times/minute fall frequency. The volume of the material after a first 500 fall cycle is then measured. […] The tapped density, in g/mL, is expressed by the formula: M/Vf.

[2] = Hygroscopicity and storage behaviour of the granulate; format: physicochemical; conditions: ground to the desired particle size

Compound	tapped density of the granulate [1]	hygroscopicity of the granulate [2]	stability of the granulate in time (packing and/or aggregation) [2]	Physico-chemical characteristics of the final compound ([1]; prepared in the presence of a crystallization initiator)
L(−)-carnitine Acid Fumarate [Example 1]	0.84 g/mL	non-hygroscopic	remained unchanged in time without undergoing packing and/or aggregation	
C[N+](C)(C)C[C@H](O)CC(=O)O.C[N+](C)(C)C[C@H](O)CC(=O)O.O=C([O-])C(O)C(O)C(=O)[O-] [Example 3, L(−)-carnitine Tartrate (2:1)]	0.83 g/mL			
L(−)-carnitine Acid Fumarate [Example 2]				the same as those obtained in the preparation of Example 1
